The text below walks through data of patent US20010044445A1, “AZOLE INHIBITORS OF CYTOKINE PRODUCTION” (priority 1999, published 2001).

For data set [1], the system named is Human peripheral blood mononuclear cells. Nature of the data set: Human Concanavalin-A Proliferation Assay (Con HU Assay). It counts as cell-based. The conditions noted are these: concanavalin-A stimulated human PBMC; for inhibition at 10 µM / IC50 / inhibition at 1 µM / inhibition at 100 µM: Homo sapiens, PBMC; for inhibition at 10 µM / inhibition at 1 µM / inhibition at 100 µM: 72 h, read-out: % Inhibition of proliferation (at concentrations of 1,10, or 100 μm); for inhibition at 10 µM: concentration 10 μm (in parentheses in the cell); for inhibition at 10 µM / inhibition at 1 µM / inhibition at 100 µM / % Inhibition of proliferation (at concentrations of 1,10, or 100 μm): 3 days; for IC50: tritiated thymidine; for inhibition at 1 µM / % Inhibition of proliferation (at concentrations of 1,10, or 100 μm): concentration 1 μm (in parentheses in the cell); for inhibition at 100 µM: concentration 100 μm (in parentheses in the cell). An outline of the steps:
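Proliferation read as tritiated thymidine uptake (0.5 μCi/well, 6 h pulse on day 3) in human PBMC cultured 3 days with 2.5 μg/ml (final) concanavalin-A. Cells, 50,000 per well in supplemented RPMI 1640 with 10% FBS, received compound 15 min before mitogen.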

As to `FC(F)(F)c1cc(C(F)(F)F)n(-c2ccc(/C=C/c3ccccc3Cl)cc2)n1` [Example 154, (E)-1-[4-[2-(2-chlorophenyl)ethenyl]phenyl]-3,5-bis(trifluoromethyl)-1H-pyrazole], the melting point (in general, the temperature of the solid-liquid transition) was 81 to 82 °C. For the same compound, in data set [1], the inhibition at 10 µM is 52% and the IC50 (as a rule, the midpoint of a concentration-inhibition curve) stood at 3820 nM.
`O=C(O)c1ccc(C(=O)Nc2ccc(-n3nc(C(F)(F)F)cc3C(F)(F)F)cc2)cc1` [Example 157, 4-[[[4-[3,5-bis(trifluoromethyl)-1H-pyrazol-1-yl]phenyl]amino]carbonyl]benzoic acid] displayed a melting point of 282 to 283 °C. Besides, in data set [1], the inhibition at 10 µM was determined as 42% and the IC50 is 6760 nM.
Consider `O=C(O)c1cccc(C(=O)Nc2ccc(-n3nc(C(F)(F)F)cc3C(F)(F)F)cc2)c1` [Example 159, 3-[[[4-[3,5-bis(trifluoromethyl)-1H-pyrazol-1-yl]phenyl]amino]carbonyl]benzoic acid], for which the melting point fell in the range of 244 to 245 °C. Besides, in data set [1], the inhibition at 10 µM worked out at 93% and the IC50 is 2930 nM.
For the compound `O=C(Nc1ccc(-n2nc(C(F)(F)F)cc2C(F)(F)F)cc1)c1c(F)cccc1F` [Example 160, N-[4-[3,5-bis(trifluoromethyl)-1H-pyrazol-1-yl]phenyl]-2,6-difluorobenzamide], the melting point was in the range of 127 to 128 °C. Further, the inhibition at 1 µM in data set [1] turned out to be 1%.
For the compound `Cc1ccsc1C(=O)Nc1ccc(-n2nc(C(F)(F)F)cc2C(F)(F)F)cc1` [Example 162, N-[4-[3,5-bis(trifluoromethyl)-1H-pyrazol-1-yl]phenyl]-3-methyl-2-thiophenecarboxamide], the melting point fell in the range of 185 to 188 °C. In data set [1], the inhibition at 10 µM stood at 100% and the IC50 stood at 44 nM.
Consider `Nc1ccccc1C(=O)Nc1ccc(-n2nc(C(F)(F)F)cc2C(F)(F)F)cc1` [Example 163, 2-amino-N-[4-[3,5-bis(trifluoromethyl)-1H-pyrazol-1-yl]phenyl]benzamide], for which the melting point was in the range of 204 to 206 °C. For the same compound, in data set [1], the inhibition at 100 µM was 98% and half-maximal inhibition (IC50) required 235 nM.
`O=C(Nc1ccc(-n2nc(C(F)(F)F)cc2C(F)(F)F)cc1)c1cccnc1F` [Example 164, N-[4-[3,5-bis(trifluoromethyl)-1H-pyrazol-1-yl]phenyl]-2-fluoro-3-pyridinecarboxamide] had a melting point of 110 to 112 °C. Also, in data set [1], the inhibition at 10 µM stood at 99% and the IC50 stood at 39 nM.
In turn, `CS(=O)(=O)c1csc(C(=O)Nc2ccc(-n3nc(C(F)(F)F)cc3C(F)(F)F)cc2)c1Cl` [Example 165, N-[4-[3,5-bis(trifluoromethyl)-1H-pyrazol-1-yl]phenyl]-3-chloro-4-(methylsulfonyl)-2-thiophenecarboxamide] gave a melting point of 210 to 212 °C. Moreover, in data set [1], the inhibition at 10 µM was 57% and the IC50 was 6700 nM.
Regarding `O=C(Nc1ccc(-n2nc(C(F)(F)F)cc2C(F)(F)F)cc1)c1ccc[nH]1` [Example 166, N-[4-[3,5-bis(trifluoromethyl)-1H-pyrazol-1-yl]phenyl]-1H-pyrrole-2-carboxamide], the melting point was more than 240 °C. Further, the inhibition at 1 µM in data set [1] came to 11%.
`O=C(Nc1ccc(-n2nc(C(F)(F)F)cc2C(F)(F)F)cc1)c1nc(Cl)ccc1Cl` [Example 167, N-[4-[3,5-bis(trifluoromethyl)-1H-pyrazol-1-yl]phenyl]-3,6-dichloro-2-pyridinecarboxamide] had a melting point of 118 to 119 °C. In addition, in data set [1], the inhibition at 100 µM turned out to be 100% and the IC50 worked out at 279 nM.
`O=C(COc1ccccc1[N+](=O)[O-])Nc1ccc(-n2nc(C(F)(F)F)cc2C(F)(F)F)cc1` [Example 168, N-[4-[3,5-bis(trifluoromethyl)-1H-pyrazol-1-yl]phenyl]-2-(2-nitrophenoxy)acetamide] displayed a melting point of 170 to 173 °C. For the same compound, the inhibition at 1 µM in data set [1] is 20%.
For `O=C(Cc1ccc(Cl)cc1)Nc1ccc(-n2nc(C(F)(F)F)cc2C(F)(F)F)cc1` [Example 169, N-[4-[3,5-bis(trifluoromethyl)-1H-pyrazol-1-yl]phenyl]-4-chlorobenzeneacetamide], in that order: 122 to 124 °C and 2%.
Take `O=C(Cc1cc2ccccc2[nH]1)Nc1ccc(-n2nc(C(F)(F)F)cc2C(F)(F)F)cc1` [Example 170, N-[4-[3,5-bis(trifluoromethyl)-1H-pyrazol-1-yl]phenyl]-1H-indole-2-acetamide]: the melting point lay within 176 to 178 °C. Moreover, the inhibition at 1 µM in data set [1] was 25%.
For `O=C(/C=C/c1cccs1)Nc1ccc(-n2nc(C(F)(F)F)cc2C(F)(F)F)cc1` [Example 171, (E)-N-[4-[3,5-bis(trifluoromethyl)-1H-pyrazol-1-yl]phenyl]-3-(2-thienyl)-2-propenamide], in that order: 216 to 218 °C and 12%.
In turn, `CC(=O)N1CCC(C(=O)Nc2ccc(-n3nc(C(F)(F)F)cc3C(F)(F)F)cc2)CC1` [Example 174, 1-Acetyl-N-[4-[3,5-bis(trifluoromethyl)-1H-pyrazol-1-yl]phenyl]-4-piperidinecarboxamide] gave a melting point of 94 to 95 °C. Besides, in data set [1], the inhibition at 10 µM amounted to 99% and half-maximal inhibition (IC50) required 730 nM.
In the case of `COc1cc(Cl)ccc1C(=O)Nc1ccc(-n2nc(C(F)(F)F)cc2C(F)(F)F)cc1` [Example 176, N-[4-[3,5-Bis(trifluoromethyl)-1H-pyrazol-1-yl]phenyl]-4-chloro-2-methoxybenzamide], the melting point was in the range of 178 to 180 °C. Moreover, in data set [1], the inhibition at 1 µM amounted to 12%.
`CC(C(=O)Nc1ccc(-n2nc(C(F)(F)F)cc2C(F)(F)F)cc1)c1ccc(C(=O)c2cccs2)cc1` (stereo not drawn) [Example 177, N-[4-[3,5-bis(trifluoromethyl)-1H-pyrazol-1-yl]phenyl]-α-methyl-4-(2-thienylcarbonyl)benzeneacetamide] yielded a melting point of less than 80 °C. The “% Inhibition of proliferation (at concentrations of 1,10, or 100 μm)” value in data set [1] was 4(1) %.
Compound `CC(C(=O)Nc1ccc(-n2nc(C(F)(F)F)cc2C(F)(F)F)cc1)c1ccc(C(=O)c2cccs2)cc1` (stereo not drawn) [Example 178, N-[4-[3,5-bis(trifluoromethyl)-1H-pyrazol-1-yl]phenyl]-α-methyl-4-(2-thienylcarbonyl)benzeneacetamide] came in with a melting point of less than 100 °C. Moreover, the “% Inhibition of proliferation (at concentrations of 1,10, or 100 μm)” value in data set [1] is on record as 14(1) %.
Turning to `O=C(Nc1ccc(-n2nc(C(F)(F)F)cc2C(F)(F)F)cc1)c1ccc(O)c([N+](=O)[O-])c1` [Example 180, N-[4-[3,5-bis(trifluoromethyl)-1H-pyrazol-1-yl]phenyl]-4-hydroxy-3-nitrobenzamide], the melting point lay within 193 to 194 °C. In data set [1], the inhibition at 10 µM was 95% and the IC50 was 2870 nM.
`O=C(Nc1ccc(-n2nc(C(F)(F)F)cc2C(F)(F)F)cc1)c1ccc(O)c(O)c1` [Example 181, N-[4-[3,5-bis(trifluoromethyl)-1H-pyrazol-1-yl]phenyl]-3,4-dihydroxybenzamide] had a melting point of 233 to 235 °C. Also, in data set [1], the inhibition at 10 µM turned out to be 100% and the IC50 is 2240 nM.
Take `COc1cccc(O)c1C(=O)Nc1ccc(-n2nc(C(F)(F)F)cc2C(F)(F)F)cc1` [Example 182, N-[4-[3,5-bis(trifluoromethyl)-1H-pyrazol-1-yl]phenyl]-2-hydroxy-6-methoxybenzamide]: the melting point lay within 114 to 116 °C. For the same compound, in data set [1], the inhibition at 10 µM was determined as 83% and the IC50 amounted to 4670 nM.
In turn, `O=C(Nc1ccc(-n2nc(C(F)(F)F)cc2C(F)(F)F)cc1)c1ccc(C(F)(F)F)cc1C(F)(F)F` [Example 183, N-[4-[3,5-bis(trifluoromethyl)-1H-pyrazol-1-yl]phenyl]-2,4-bis(trifluoromethyl)benzamide] came in with a melting point of 200 to 201 °C. Moreover, in data set [1], the inhibition at 10 µM amounted to 94% and the IC50 was 542 nM.
Compound `Cc1oncc1C(=O)Nc1ccc(-n2nc(C(F)(F)F)cc2C(F)(F)F)cc1` [Example 184, N-[4-[3,5-bis(trifluoromethyl)-1H-pyrazol-1-yl]phenyl]-5-methyl-4-isoxazolecarboxamide] registered a melting point of 163 to 167 °C. Besides, in data set [1], the inhibition at 10 µM worked out at 90% and it took 420 nM to reach half-maximal inhibition (IC50).
`O=C(Nc1ccccc1Cl)c1ccc(-n2nc(C(F)(F)F)cc2C(F)(F)F)cc1` [Example 185, 4-[3,5-Bis(trifluoromethyl)-1H-pyrazol-1-yl]-N-(2-chlorophenyl)benzamide] returned a melting point of 162 to 164 °C. Further, the inhibition at 1 µM in data set [1] is 26%.
Consider `N#Cc1cccc(NC(=O)c2ccc(-n3nc(C(F)(F)F)cc3C(F)(F)F)cc2)c1` [Example 186, 4-[3,5-Bis(trifluoromethyl)-1H-pyrazol-1-yl]-N-(3-cyanophenyl)benzamide], for which the melting point lay in the range of 195 to 196 °C. Besides, the inhibition at 1 µM in data set [1] came to 14%.
With `O=C(Nc1ccc(F)cc1F)c1ccc(-n2nc(C(F)(F)F)cc2C(F)(F)F)cc1` [Example 187, 4-[3,5-Bis(trifluoromethyl)-1H-pyrazol-1-yl]-N-(2,4-difluorophenyl)benzamide], the melting point lay in the range of 176 to 177 °C. In data set [1], the inhibition at 1 µM was determined as 86% and the IC50 was 362 nM.
